Data reported in patent US20130156845A1, “LIPID FORMULATED SINGLE STRANDED RNA” (ALNYLAM PHARMACEUTICALS, INC., priority 2010, published 2013).
Like-named read-outs stand apart in the source and are kept apart here. Strand notation (5' to 3'): a small letter for the sugar, then the base; units joined by * are phosphorothioate-linked, units joined directly phosphodiester-linked; [ ] holds rarer units or linkages, { } end groups; capitals alone tell only the bases. [DMAEAc-N] = nucleoside with 2'-O-dimethylaminoethyl acetamide (DMAEAc) sugar (N: the base); [R5Me] = (R)-5'-methyl-2'-deoxythymidine; e = 2'-O-(2-methoxyethyl) (MOE); m = 2'-O-methyl; {P} = phosphate; f = 2'-fluoro

Columns and labels:
[1] = Modified ssRNA 5′-phosphate serum stability assay (Example 60); format: in vitro ADME; conditions: full length ssRNA with 5′-terminal phosphate; 10 μM in 95% fresh mouse serum, 37° C., LC/MS
Description: A serum stability assay is useful for evaluating the stability of oligomeric compounds in the presences of nucleases and other enzymes found in serum. For example, the stability of a 5′-terminal phosphate group of an oligomeric compound can be evaluated by assessing the ability of the 5′-terminal phosphate group to remain attached to the oligomeric compound in the presence of serum. Accordingly, a serum stability assay was employed to evaluate the stability of modified ssRNAs having a 5′-terminal phosphate group.
Various modified ssRNAs, shown below, having a 5′-terminal phosphate group (10 μM) were dissolved in 95% of fresh mouse serum and incubated at 37° C. Aliquots of serum (100 μL) were removed after 0, 1, 3, 6 or 24 hours of incubation times. The serum samples were immediately quenched and snap frozen. The samples were extracted by the strong anion exchange (SAX) and octadecylsilyl (C-18) columns. For each incubation time, the amount of full length modified ssRNA having a 5′-terminal phosphate group was determined by LC/MS, and the half-life of the full length modified ssRNA having a 5′ terminal phosphate group was calculated. The results are expressed as half-time (T1/2) in the table below.

human PTEN = experiment: PTEN expression in HeLa cells, ssRNAs vs siRNAs (Example 62); format: cell-based
Experimental: A series of 5′ and 2′ bis-substituted modified oligomeric compounds were prepared as single strand RNAs (ssRNAs). The antisense (AS) strands listed below were designed to target human PTEN, and each was also assayed as part of a duplex with the same sense strand (ISIS 341401, shown below) for their ability to reduce PTEN expression levels. HeLa cells were treated with the single stranded or double stranded oligomeric compounds created with the antisense compounds shown below using methods described herein. The IC50's were calculated using the linear regression equation generated by plotting the normalized mRNA levels to the log of the concentrations used.

[2] = Phosphate stability in mouse serum (Example 68)
Experimental: Single-stranded oligomeric compounds were tested for stability in mouse serum.

PTEN [3] = experiment: PTEN mRNA reduction in HeLa cells, dose response (Example 69); format: cell-based, human; conditions: percent inhibition of PTEN mRNA, 0.067-50 nM
Experimental: In accordance with the present disclosure, oligomeric compounds were synthesized and tested for their ability to reduce PTEN expression over a range of doses. Human HeLa cells were treated with either ISIS 447581, 467074, 418046 or 467076. A dose comparison was evaluated with dose concentrations of 0.067, 0.2, 0.62, 1.9, 5.5, 16.7 and 50 nM using methods described herein. Expression levels of PTEN were determined using real-time PCR and normalized to RIBOGREEN™ using methods described herein. The percent inhibition of PTEN mRNA was determined and the resulting dose-response curves were used to determine the EC50. The EC50s are listed below.

PTEN [4] = experiment: Liver PTEN mRNA in Balb/c mice, unformulated oligomeric compounds (Example 70); format: in vivo, mouse; conditions: 48 h; for inhibition of PTEN: 75 mg/kg, liver; for % inhibition: liver PTEN mRNA, single i.p. dose 75 mg/kg, normalized to saline control
Experimental: Six-week-old male Balb/c mice (Jackson Laboratory, Bar Harbor, Me.) were injected intraperitenially with a single dose of 75 mg/kg of one of the three oligomeric compounds above or with saline control. Each dose group consisted of four animals. The mice were sacrificed 48 hours following administration. Livers were collected and PTEN mRNA levels were assessed using real-time PCR and RIBOGREEN® RNA quantification reagent (Molecular Probes, Inc. Eugene, Oreg.) according to standard protocols. PTEN mRNA levels were determined relative to total RNA (using Ribogreen), and normalized to the saline-treated control. Results are listed below as the average % inhibition of PTEN mRNA expression for each treatment group, normalized to saline-injected control.

PTEN [5] = experiment: In vivo evaluation of ssRNA formulated in lipid particle LNP06, liver PTEN mRNA (Example 77); parameters: species or system mouse; conditions: ssRNA formulated in LNP06, 4.5 mg/kg tail vein, C57BL/6 mice, liver PTEN mRNA normalized to GAPDH, 2 days post injection
Experimental: In accordance with the present disclosure, oligomeric compounds were synthesized and tested for their ability to reduce PTEN. C57BL/6 mice (Charles River Labs, MA) received either saline or LNP formulated single stranded RNA via tail vein injection at a volume of 0.01 mL/g and the single stranded RNA dose is 4.5 mg/kg. 25 groups of female mice and 9 modified ssRNAs targeting PTEN were formulated in LNP06 and tested. To determine liver mRNA levels of PTEN, 2 days post injection, animals were sacrificed and livers were harvested and snap frozen in liquid nitrogen. Liver lysates were prepared from the frozen tissues and liver mRNA levels of PTEN normalized to GAPDH were quantified using a branched DNA assay (QuantiGene Assay, Panomics, Calif.).

[6] = In vivo stability: tissue level of intact compound (Example 71)
Experimental: The in vivo stability of the three oligomeric compounds in Example 70 was evaluated. The tissue samples were obtained from the animals in which PTEN was assessed. […] Quantitative analysis of the oligonucleotides standard were performed by extracted ion chromatograms in the most abundant charge state (−4) using Chemstation software.

A549 cells = experiment: MicroRNA mimics: cell cycle assay; format: cell-based; conditions: RNAIMAX transfection, 0.1-100 nM, nocodazole, propidium iodide flow cytometry
Experimental: A cell cycle assay was used to evaluate the activity of microRNA mimics. A549 cells were plated at a density of approximately 45,000 cells per well of a 24-well plate. The following day, cells were transfected with microRNA mimics and control oligomeric compounds, using RNAIMAX as the transfection reagent. Oligomeric compounds were tested at concentrations ranging from 0.1 nM to 100 nM. Control oligomeric compounds were also tested. Approximately 24 hours following transfection, nocodazole was added to the cells at a concentration ranging from 0.5 to 2.0 μg/ml. Approximately 16 hours later, the cells were harvested, washed, ethanol-fixed and stained with propidium iodide. Cells cycle profiles were generated by subjecting the stained cells to flow cytometry (FACSCAN).

[7] = antisense strand duplexed with sense strand ISIS 341401, PTEN mRNA, read-out: EC50 (nM) siRNA
[8] = single stranded antisense compound, PTEN mRNA, read-out: EC50 (nM) ssRNA
[9] = full compound with intact phosphorous moiety, first table
[10] = Dose @ 75 mg/kg (48 h time point)

Substance	T1/2 [1] [h]	EC50 (human PTEN; [7]) [nM]	EC50 (human PTEN; [8]) [nM]	EC50 (PTEN [3]) [nM]	also measured
P-TRUfGfUfCfUfCfUfGfGfUfCfCfUfUfAfCfUfUfAeAe (antisense TUGUCUCUGGUCCUUACUUAA; sugars from the 5' end [R5Me]1 f18 e2, 5' {P}, backbone not given here) [ISIS 432356]	8.7	0.7	3		T1/2 full length [2, 9]: 8.7 h
P-TScUfGmUfCmUfCmUfGmGfUmCfCmUfUmAfCmUfUmAeAe (antisense TUGUCUCUGGUCCUUACUUAA; 5'-phosphate, 2'-F/2'-OMe, MOE modifications, chemistry not fully specified) [ISIS 467074]		0.1	2.5	2.5	inhibition of PTEN (PTEN [4]): lowest amount of PTEN reduction; % inhibition (PTEN [4]): 11%; % Kd (PTEN [5]): 52%; compound lacking the 5′-phosphate in tissue ([6]; 75 mg/kg, 48 h): detected; level of intact compound in tissue ([6]; 75 mg/kg, 48 h): not detected; Tissue Level of intact compound (μg/g) [6, 10]: none detected
P-TdUfGfUfCfUfCfUfGfGfUfCfCfUfUfAfCfUfUfAeAe (antisense {P}-[DMAEAc-T]fUfGfUfCfUfCfUfGfGfUfCfCfU*fU*fA*fC*fU*fU*eA*eA) [ISIS 422391]	6.5	0.5	5		T1/2 full length ([2]; four compounds tested separately, second table): 3.7 h; T1/2 full length [2, 9]: 6.5 h
P-USfUfGfUfCfUfCfUfGfGfUfCfCfUfUfAfCfUfUf (antisense UUGUCUCUGGUCCUUACUU; 5'-phosphate, 2'-F, phosphorothioate, chemistry not fully specified) [ISIS 398701, modified ssRNA targeting PTEN]	18.2				
P-UmAfGfCfAfGfCfAfCmGmUfAfAmAmUfAfUfUfGfGmCmGmAeAe [ss miR-16]					cell cycle phenotype (A549 cells): blocking cells in the G1 phase of the cell cycle
P-UmUfGmUfCmUfCmUfGmGfUmCfCmUfUmAfCmUfUmAeAe (antisense UUGUCUCUGGUCCUUACUUAA; sugars from the 5' end mfmfmfmfmfmfmfmfmfmee, 5' {P}, backbone not given here) [ISIS 418046, modified ssRNA targeting PTEN]		0.2	2	0.83	
Py-^meUmUfGmUfCmUfCmUfGmGfUmCfCmUfUmAfCmUfUmAeAe (antisense UUGUCUCUGGUCCUUACUUAA; 5'-methylenephosphonate, 2'-F/2'-OMe, MOE, chemistry not fully specified) [ISIS 467076]		0.05	6	6	inhibition of PTEN (PTEN [4]): smaller inhibition of PTEN; % inhibition (PTEN [4]): 16%; % Kd (PTEN [5]): 34%; level of intact compound in tissue ([6]; 75 mg/kg, 48 h): present at a lower concentration; Tissue Level of intact compound [6, 10]: 22.5 µg/g
ds miR-16: double-stranded miR-16 mimic: UAGCAGCACGUAAAUAUUGGCG (SEQ 21) with AAAGCGUCGUGCAUUUAUAACC (SEQ 22) (chain 2 CCAAUAUUUACGUGCUGCGAAA; listed as RNA, chemistry not given here) [reference compound]					cell cycle phenotype (A549 cells): blocked cells in the G1 phase of the cell cycle
